From US20240139191A1, “SMALL MOLECULES AS LARP1 LIGANDS” (priority 2020, published 2024) come the findings set out here.

This assay addresses LARP1 DM15 region (Homo sapiens, UniProt Q6PKG0). The assay can be described thus: binding of LARP1 DM15 region to capped RNA motifs. The settings on record: relative to endogenous (human) m7GpppC motif; FIGS. 1B & C.

On to `Cn1c[n+]([C@@H]2O[C@H](COP(=O)(O)OP(=O)(O)OP(=O)(O)OC[C@H]3O[C@@H](n4cnc5c(N)ncnc54)[C@H](O)[C@@H]3O)[C@@H](O)[C@H]2O)c2nc(N)[nH]c(=O)c21` [m^7GpppA], for which the “interaction with DM15 region compared with m7GpppC-initiated mRNA targets” value was “even tighter interaction”.
